According to patent US12403114B2, “Cannabinoid acid ester compositions and uses thereof” (EPM (IP), INC., priority 2019, dated 2025):

Columns and labels:
[1] = tested on: DSS induced acute colitis; assay: DSS induced acute colitis mouse model, EPM-301 versus EPM-302, Example 13; assay type: in vivo, C57BL/6 mice; conditions: 10 mg/kg
Protocol: Colitis was induced in 10 weeks old female C57BL/6 mice using dextran sodium sulphate (DSS). Mice were fed for 8 days with 2% (wt/vol) DSS in their drinking water. […] EPM-302 served as an additional control.
(§1) Weight loss was measured on days 1, 3, 5, 8, and 10.
(§2) Next, the mice were sacrificed and the length of their colons were measured.
Cytokine levels of IL-6 and TNFα were measured using ELISA kits (R&D Systems, USA). Colon TNFα (FIG. 19), blood IL-6 (FIG. 20), levels were lower in mice treated with CBDA-Me (EPM-301) as compared to EPM-302. Similarly, the MEICS score of EPM-301 treated subjects were also lower than EPM-302 treated subjects (FIG. 21). Representative photos of colonoscopy can be seen in FIG. 22A-22D.

[2] = target: T1, glucose transporter 2 (GLUT2) (Homo sapiens, UniProt P11168); assay: 2-NBDG glucose uptake in transfected HEK293t cells; assay type: cell-based; conditions: 50-0.1 μM tested
T1 construct: expressed in transfected cells; host or cells: HEK293t
T1 sequence (P11168 1-524): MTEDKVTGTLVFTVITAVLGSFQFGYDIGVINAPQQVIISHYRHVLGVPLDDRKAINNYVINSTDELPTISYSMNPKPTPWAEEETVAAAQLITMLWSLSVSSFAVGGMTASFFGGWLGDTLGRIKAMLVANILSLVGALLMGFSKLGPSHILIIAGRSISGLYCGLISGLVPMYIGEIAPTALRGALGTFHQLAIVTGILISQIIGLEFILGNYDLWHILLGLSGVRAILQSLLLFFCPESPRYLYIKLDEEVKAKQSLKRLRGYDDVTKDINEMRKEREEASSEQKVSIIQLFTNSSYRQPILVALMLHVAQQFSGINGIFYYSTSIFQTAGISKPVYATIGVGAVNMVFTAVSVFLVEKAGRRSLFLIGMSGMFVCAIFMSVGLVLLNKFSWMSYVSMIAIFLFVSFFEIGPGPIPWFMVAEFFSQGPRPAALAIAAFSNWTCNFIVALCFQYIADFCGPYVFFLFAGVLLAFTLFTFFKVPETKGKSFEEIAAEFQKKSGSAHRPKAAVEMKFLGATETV
Protocol: In vitro assays for measuring glucose uptake were designed to assess whether EPM-301 and EPM-302 compounds are capable of inhibiting or increasing glucose uptake via glucose transporters (GLUTs).
Transfected HEK293t cells, which express the glucose transporter 2 (GLUT2), were cultured in a 96 well plate and maintained at 37° C. in 5% CO2 in DMEM medium supplemented with 10% FCS, 2 mM 1-glutamine, 1 mM sodium pyruvate, 100 U/mL penicillin, and […] streptomycin for 24 h. The medium was then washed with a choline chloride Na^+-free buffer (CCB), in which only GLUTs (and not the sodium/glucose transporters [SGLTs]) were active. The wells were then added with CCB/CCB+2-NBDG (a fluorescent derivative of glucose). Compounds were tested in a range of concentrations for their ability to inhibit/increase 2-NBDG uptake into the cells. After 1.5 h incubation, cells were washed with CCB and incubated with 1 μg/μL of Hoechst for 15 mins at 37° C. and protected from light. Fluorescence was measured by the Cytation-3 plate reader at ex:485 nm/em:528 nm and ex:350 nm/em:461 nm for 2-NBDG Hoechst, respectively. Results of the 2-NBDG levels were normalized to Hoechst levels of each well, and presented as a change in the uptake of 2-NBDG in comparison with Vehicle-treated group.
Vehicle solution (choline chloride buffer), EPM-301 (50-0.1 μM), and EPM-302 (50-0.1 μM) were used for the experiments.
Values are expressed as mean±SEM. Unpaired two-tailed student's t-test was used to determine the differences between the groups. Significance was set at p<0.05. *versus vehicle; #versus control.

[3] = tested on: DSS induced acute colitis; assay: DSS induced acute colitis mouse model, Example 11; assay type: in vivo, C57BL/6 mice
Protocol: The therapeutic effect of CBDA-Me on inflammatory bowel disease (IBD) was examined in an acute colitis mouse model. Colitis was induced in 10 weeks old female C57BL/6 mice using dextran sodium sulphate (DSS). Mice were fed for 8 days with 2% (wt/vol) DSS in their drinking water. Mice were administered (3 animals in each group) one of the following treatments by gavage: CBD (400 mg/kg), CBDA-Me (10 mg/kg or 40 mg/kg), DSS alone (untreated control), prednisone (90 mg/kg, control), none (healthy mice).
as §1, §2
Cytokine levels of IL-6 and TNFα were measured using ELISA kits (R&D Systems, USA). Colon TNFα (FIG. 10), blood IL-6 (FIG. 11), and mouse endoscopic index of colitis severity (METICS) scoring levels (FIG. 12) were lower in mice treated with CBDA-Me compared to CBD. Representative photos of colonoscopy can be seen in FIG. 13A-13E.

[4] = tested on: Th1 (chronic and acute atopic dermatitis) mediated inflammation; assay: Ex vivo induced inflammation of human skin explants, Th1 stimulation; assay type: cell-based; conditions: topical at 40 h and 16 h prior to stimulation; degree comparable/improved to 1% hydrocortisone ointment (FIG. 6)
Protocol: (§3) The efficacy of CBDA-Me was compared to that of corticosteroid treatment in an ex vivo model of induced inflammation of human skin explants (see for example WO2019/063122 and WO2014/182655).
(§4) Freshly excised healthy human skin was dermatomed to an approximate thickness of 750±100 μm. The dermatomed skin was cut into 1 cm^2 sections and mounted onto static Franz cells with a dosing area of approximately 0.6 cm^2.
(§5) The experiment was performed as follows: • (i) Static Franz cells (n=4 per treatment), with an average surface area of approximately 0.6 cm^2 and a volume of approximately 2.0 mL were employed. • (ii) Skin was mounted onto the static Franz cell, Stratum corneum side up, and clamped into place. • (iii) The receptor compartment was filled with approximately 2 mL of warm (ca. 37° C.) Cornification media. • (iv) CBDA-Me or 1% Perrigo® hydrocortisone ointment (control) was applied topically at 40 hours and 16 hours prior to stimulation and was incubated at 37° C. with 5% C02. • (v) The contents of the receptor compartment from each cell was vacuum aspirated and replaced with 2 mL pre-warmed (ca. 37° C.) cornification media, containing either Th1 or Th17 stimulation cocktail. • (vi) Tissue explants were harvested at 24 hours post-stimulation and placed in RNAlater® solution for further processing. […]

[5] = tested on: Human Endometrial Stromal Cell Line (SHT290); assay: In vitro endometriosis model: attachment and proliferation of endometrial stromal cells; assay type: cell-based; conditions: added to the medium; dose dependent fashion
Protocol: Cultured cells from Human Endometrial Stromal Cell Line (SHT290) were used. CBDA-Me was added to the medium and the attachment of cells and their proliferation rate were measured.

[6] = tested on: Th17 (psoriasis) mediated inflammation; assay: Ex vivo induced inflammation of human skin explants, Th17 stimulation; assay type: cell-based; conditions: topical at 40 h and 16 h prior to stimulation; degree comparable/improved to 1% hydrocortisone ointment (FIG. 7)
Protocol: as §3, §4, §5

[7] = tested on: endometriosis induced by implantation of rat uterine cornu on the mesenterium; assay: In vivo rat endometriosis model, pain response to oxytocin; conditions: day 24; injected intra-peritoneally after 21 days; as compared to the control (saline)
Protocol: Endometriosis was induced by implantation of rat uterine comu on the mesenterium. The tissue was allowed to proliferate in vivo for 21 days. After 21 days, rats in the control group were injected intra-peritoneally with saline while rats in the experimental group were injected with CBDA-Me. Pain response to oxytocin was measured on day 24. The pain response decreased by 50% in the group treated with CBDA-Me as compared to the control.

[8] = tested on: chronic colitis in IL-10 KO mice; assay: Chronic colitis mouse model (IL-10 KO), Example 12; assay type: in vivo; conditions: IL-10 KO mice fed twice a day for 13 weeks
Protocol: Mice with targeted discruption of the IL-10 gene (IL-10 KO) and littermate wild-type controls (IL-10 WT) were used (see for example Scheinin et al., Clin. Exp. Immunol., 2003, 133:38-43). After 4 weeks of age mice were fed twice a day for 13 weeks with one of the following treatments: CBD, CBDA-Me, an anti-TNF antibody (control), none (untreated control mice). The CBDA-Me efficacy is compared to CBD and controls.
Cytokine levels of IL-1B and TNFα were measured using ELISA kits (R&D Systems, USA). Colon TNFα (FIG. 14), blood IL-1b (FIG. 15), and mouse endoscopic index of colitis severity (MEICS) scoring levels (FIG. 16) were lower in mice treated with CBDA-Me compared to CBD.

[9] = target: T2, serotonin 5-HT1A Receptor (Homo sapiens, UniProt P08908); conditions: CBDA activates the receptor; background statement; cited from earlier work
T2 sequence (P08908 1-422): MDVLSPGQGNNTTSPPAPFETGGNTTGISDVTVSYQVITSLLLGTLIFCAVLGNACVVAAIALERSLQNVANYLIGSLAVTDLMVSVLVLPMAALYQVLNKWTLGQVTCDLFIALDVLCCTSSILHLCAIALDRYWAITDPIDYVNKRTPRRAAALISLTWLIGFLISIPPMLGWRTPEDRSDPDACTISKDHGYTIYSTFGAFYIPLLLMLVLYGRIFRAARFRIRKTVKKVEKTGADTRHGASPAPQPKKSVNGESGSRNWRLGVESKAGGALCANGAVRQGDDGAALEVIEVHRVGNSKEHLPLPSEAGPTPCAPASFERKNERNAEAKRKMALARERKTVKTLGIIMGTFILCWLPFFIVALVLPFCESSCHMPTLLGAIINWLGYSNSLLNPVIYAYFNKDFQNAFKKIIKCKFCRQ

[10] = tested on: partial meniscectomy/ACL transection rat model of surgical induced osteoarthritis and pain induced incapacitance; assay: Weight bearing in rat meniscectomy model versus hyaluronate and corticosteroid, Example 6; assay type: in vivo
Protocol: Rats were allowed to acclimatize for 1 week, followed by assessment of their weight bearing preference using an incapacitance meter. Unilateral medical meniscectomy and anterior cruciate ligament […] (MMX/ACLT) surgery was performed on the right knee of a subject rat. Weight bearing preference was tested before and after surgery. After 2 weeks, treatments with both intra-articular (1) and. intra-peritoneal (6) administrations of EPM301 began in the EPM301 group. In the hyaluronate (HA) and corticosteroid (CS) groups, a single intra-articular injection was performed 2 weeks after model induction. Weight bearing preference was then assessed 4 and 7 days after the start of therapy.
Wistar Rats (HsdHan female rats 225-249 grams) were acquired from Envigo. The rats were evaluated using an incapacitance tester. They were tested pre-operation, one-week post-operation, two weeks post-operation, prior to injection, 4 and 7 days post injections.
EPM-301 was dissolved in a solution mixture of 1:1:18 EtOH:cremophor:seline to a final concentration of 3.5 mg/mL. Hyaluronic acid (Arthrease, 1% sodium hyaluronate) and Dexamethasone (kem Pharma, Venus, 72, Pol. Ind. Colom II, 08228 Terrassa, Barcelona) were acquired.
Intra-articular (i.a.) injection was carried out with 100 uL and intra-peritoneal (i.p.) injections were carried out with 150 uL. All were injected i.a. in the first day. EPM-301 was injected via i.p. administration on the first day, and for 5 additional days everyday via i.p. administration.
Student's t-test was performed at the last follow-up time to determine effect of the therapy as primary endpoint. The level of significance was 0.05 alpha. ANOVA was used to compare all time points, a post-hob analysis with the Scheffe all comparisons method was performed. Calculations were performed using the Analyze-it Excel add-on function.
The percentage of weight bearing was calculated as the amount of weight born (in grams) on the right hind limb divided by the amount of weight born on the left hind limb. This ratio was expressed as percentage weight bearing. Prior to operation the Rt/Lt weight bearing in both groups was similar. There were 4 animals in the EPM-301 treated group and 8 animals in each of the HA and CS treated groups, with a total of 20 tested subjects.

## CCCCCc1cc(O)c(C2C=C(C)CCC2C(C)C)c(O)c1C(=O)OC (stereo not shown) [EPM-302]
[1]
  therapeutic effect: not enough to induce a therapeutic effect
[2]
  concentration at which the effect on glucose transport was observed: all concentrations tested
[2]; 1.5 h incubation, versus vehicle (FIG. 36A, 36B)
  glucose uptake (2-NBDG) in HEK293 cells: significantly reduce

## C=C(C)[C@@H]1CCC(C)=CC1c1c(O)cc(CCCCC)c(C(=O)OC)c1O (stereo in doubt) [EPM-301, cannabidiolic acid methyl ester]
[3]; 40 mg/kg by gavage, compared to CBD (400 mg/kg), days 1-10 (FIG. 8)
  weight loss: reduced
[3]; 40 mg/kg by gavage, versus CBD and untreated control mice, similar to prednisone (FIG. 9)
  colon length: greater
[3]; compared to CBD (FIG. 12)
  mouse endoscopic index of colitis severity scoring: lower
[3]; compared to CBD, ELISA (FIG. 10)
  colon TNFα: lower
[3]; compared to CBD, ELISA (FIG. 11)
  blood IL-6: lower
[4]
  Th1 mediated inflammation (IFNγ, TNFα, IL1β, IL2, IL13 by RT-qPCR): inhibition
[5]
  attachment of cells: decrease
  proliferation rate: decrease
[6]
  Th17 mediated inflammation (IL17α, IL22, CXCL10, IL36g, SerpinB4 by RT-qPCR): inhibition
[7]
  decrease of pain response to oxytocin: 50%
[8]; compared to CBD (FIG. 14)
  colon TNFα: lower
[8]; compared to CBD (FIG. 15)
  blood IL-1b: lower
[8]; compared to CBD (FIG. 16)
  mouse endoscopic index of colitis severity (MEICS) scoring: lower

## C=C(C)C1CCC(C)=CC1c1c(O)cc(CCCCC)c(C(=O)O)c1O (stereo not shown) [CBDA, 2,4-dihydroxy-3-[3-methyl-6-prop-1-en-2-ylcyclohex-2-en-1-yl]-6-pentylbenzoic acid]
[9]
  affinity for the 5-HT1A receptor relative to CBD: significantly greater

## C[C@@H]1C[C@H]2[C@@H]3CCC4=CC(=O)C=C[C@]4(C)[C@@]3(F)[C@@H](O)C[C@]2(C)[C@@]1(O)C(=O)CO [CS, Dexamethasone, reference compound]
[10]; following injections, EPM-301 i.a. once plus i.p. 6 days, HA and CS single i.a. injection
  Rt limb weight bearing: 62.1%
[10]; immediately prior to injection, two weeks following model induction (baseline before treatment)
  weight bearing: 52.5%
